Test results as given in the supplement of paper PMC10307832.

What was measured:
Experiment in all cases: relative viability (nuclei count vs DMSO), 5 days (fraction); higher = more cells survive
NCI-H1975 = system: NCI-H1975
In short: (§1)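 After 5 days of treatment, lung cancer cells in 1536-well plates were fixed and stained in a single step (final 0.05% Triton X-100, 1% formaldehyde, 1 ug/ml Hoechst) and their nuclei counted on 4× images. Treatment had been applied by pin tool the day after seeding as one drug alone or as a fixed anchor-drug dose with five library-drug doses (not always all listed) in √10 steps. Relative viability is the nuclei count of treated wells divided by that of vehicle wells, and values are medians of duplicate plates.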

NCI-H322M = system: NCI-H322M
In short: as §1

NCI-H1437 = system: NCI-H1437
In short: as §1

NCI-H522 = system: NCI-H522
In short: as §1

LCLC-97TM1 = system: LCLC-97TM1
In short: as §1

NCI-H441 = system: NCI-H441
In short: as §1

NCI-H647 = system: NCI-H647
In short: as §1

NCI-H2342 = system: NCI-H2342
In short: as §1

NCI-H1915 = system: NCI-H1915
In short: as §1

NCI-H358 = system: NCI-H358
In short: as §1

NCI-H23 = system: NCI-H23
In short: as §1

NCI-H838 = system: NCI-H838
In short: as §1

PC-3 [JPC-3] = system: PC-3 [JPC-3]
In short: as §1

NCI-H460 = system: NCI-H460
In short: as §1

NCI-H1650 = system: NCI-H1650
In short: as §1

NCI-H661 = system: NCI-H661
In short: as §1

NCI-H596 = system: NCI-H596
In short: as §1

EKVX = system: EKVX
In short: as §1

NCI-H1666 = system: NCI-H1666
In short: as §1

NCI-H520 = system: NCI-H520
In short: as §1

NCI-H727 = system: NCI-H727
In short: as §1

NCI-H1792 = system: NCI-H1792
In short: as §1

SK-LU-1 = system: SK-LU-1
In short: as §1

Structure (SMILES): CCNC(=O)c1noc(-c2cc(C(C)C)c(O)cc2O)c1-c1ccc(CN2CCOCC2)cc1 [Luminespib] + COc1cccc2cc(-c3nc([C@H]4CC[C@H](C(=O)O)CC4)n4ncnc(N)c34)[nH]c12 [OSI-027] (partner 0.5 µM)
- relative viability (NCI-H1975; first compound 0.002 µM): 0.746
- relative viability (NCI-H1975; first compound 0.006325 µM): 0.677
- relative viability (NCI-H1975; first compound 0.02 µM): 0.187
- relative viability (NCI-H1975; first compound 0.06325 µM): 0.0795
- relative viability (NCI-H1975; first compound 0.2 µM): 0.0958
- relative viability (NCI-H322M; first compound 0.002 µM): 0.564
- relative viability (NCI-H322M; first compound 0.006325 µM): 0.503
- relative viability (NCI-H322M; first compound 0.02 µM): 0.467
- relative viability (NCI-H322M; first compound 0.06325 µM): 0.278
- relative viability (NCI-H322M; first compound 0.2 µM): 0.312
- relative viability (NCI-H1437; first compound 0.002 µM): 0.838
- relative viability (NCI-H1437; first compound 0.006325 µM): 0.845
- relative viability (NCI-H1437; first compound 0.02 µM): 0.466
- relative viability (NCI-H1437; first compound 0.06325 µM): 0.57
- relative viability (NCI-H1437; first compound 0.2 µM): 0.187
- relative viability (NCI-H522; first compound 0.002 µM): 0.687
- relative viability (NCI-H522; first compound 0.006325 µM): 0.732
- relative viability (NCI-H522; first compound 0.02 µM): 0.615
- relative viability (NCI-H522; first compound 0.06325 µM): 0.538
- relative viability (NCI-H522; first compound 0.2 µM): 0.587
- relative viability (LCLC-97TM1; first compound 0.002 µM): 0.543
- relative viability (LCLC-97TM1; first compound 0.006325 µM): 0.601
- relative viability (LCLC-97TM1; first compound 0.02 µM): 0.304
- relative viability (LCLC-97TM1; first compound 0.06325 µM): 0.492
- relative viability (LCLC-97TM1; first compound 0.2 µM): 0.114
- relative viability (NCI-H441; first compound 0.002 µM): 0.655
- relative viability (NCI-H441; first compound 0.006325 µM): 0.588
- relative viability (NCI-H441; first compound 0.02 µM): 0.286
- relative viability (NCI-H441; first compound 0.06325 µM): 0.142
- relative viability (NCI-H441; first compound 0.2 µM): 0.16
- relative viability (NCI-H647; first compound 0.002 µM): 0.717
- relative viability (NCI-H647; first compound 0.006325 µM): 0.626
- relative viability (NCI-H647; first compound 0.02 µM): 0.595
- relative viability (NCI-H647; first compound 0.06325 µM): 0.0814
- relative viability (NCI-H647; first compound 0.2 µM): 0.0562
- relative viability (NCI-H2342; first compound 0.002 µM): 0.623
- relative viability (NCI-H2342; first compound 0.006325 µM): 0.586
- relative viability (NCI-H2342; first compound 0.02 µM): 0.545
- relative viability (NCI-H2342; first compound 0.06325 µM): 0.569
- relative viability (NCI-H2342; first compound 0.2 µM): 0.397
- relative viability (NCI-H1915; first compound 0.002 µM): 0.596
- relative viability (NCI-H1915; first compound 0.006325 µM): 0.502
- relative viability (NCI-H1915; first compound 0.02 µM): 0.517
- relative viability (NCI-H1915; first compound 0.06325 µM): 0.243
- relative viability (NCI-H1915; first compound 0.2 µM): 0.0689
- relative viability (NCI-H358; first compound 0.002 µM): 0.9
- relative viability (NCI-H358; first compound 0.006325 µM): 0.747
- relative viability (NCI-H358; first compound 0.02 µM): 0.362
- relative viability (NCI-H358; first compound 0.06325 µM): 0.0472
- relative viability (NCI-H358; first compound 0.2 µM): 0.0538
- relative viability (NCI-H23; first compound 0.002 µM): 0.503
- relative viability (NCI-H23; first compound 0.006325 µM): 0.508
- relative viability (NCI-H23; first compound 0.02 µM): 0.322
- relative viability (NCI-H23; first compound 0.06325 µM): 0.133
- relative viability (NCI-H23; first compound 0.2 µM): 0.136
- relative viability (NCI-H838; first compound 0.002 µM): 0.391
- relative viability (NCI-H838; first compound 0.006325 µM): 0.375
- relative viability (NCI-H838; first compound 0.02 µM): 0.275
- relative viability (NCI-H838; first compound 0.06325 µM): 0.134
- relative viability (NCI-H838; first compound 0.2 µM): 0.149
- relative viability (PC-3 [JPC-3]; first compound 0.002 µM): 0.813
- relative viability (PC-3 [JPC-3]; first compound 0.006325 µM): 0.718
- relative viability (PC-3 [JPC-3]; first compound 0.02 µM): 0.583
- relative viability (PC-3 [JPC-3]; first compound 0.06325 µM): 0.58
- relative viability (PC-3 [JPC-3]; first compound 0.2 µM): 0.225
- relative viability (NCI-H460; first compound 0.002 µM): 0.702
- relative viability (NCI-H460; first compound 0.006325 µM): 0.586
- relative viability (NCI-H460; first compound 0.02 µM): 0.0482
- relative viability (NCI-H460; first compound 0.06325 µM): 0.0153
- relative viability (NCI-H460; first compound 0.2 µM): 0.0165
- relative viability (NCI-H1650; first compound 0.002 µM): 0.717
- relative viability (NCI-H1650; first compound 0.006325 µM): 0.44
- relative viability (NCI-H1650; first compound 0.02 µM): 0.163
- relative viability (NCI-H1650; first compound 0.06325 µM): 0.0992
- relative viability (NCI-H1650; first compound 0.2 µM): 0.148
- relative viability (NCI-H661; first compound 0.002 µM): 0.802
- relative viability (NCI-H661; first compound 0.006325 µM): 0.672
- relative viability (NCI-H661; first compound 0.02 µM): 0.58
- relative viability (NCI-H661; first compound 0.06325 µM): 0.199
- relative viability (NCI-H661; first compound 0.2 µM): 0.226
- relative viability (NCI-H596; first compound 0.002 µM): 0.797
- relative viability (NCI-H596; first compound 0.006325 µM): 0.788
- relative viability (NCI-H596; first compound 0.02 µM): 0.415
- relative viability (NCI-H596; first compound 0.06325 µM): 0.642
- relative viability (NCI-H596; first compound 0.2 µM): 0.377
- relative viability (EKVX; first compound 0.002 µM): 0.631
- relative viability (EKVX; first compound 0.006325 µM): 0.684
- relative viability (EKVX; first compound 0.06325 µM): 0.658
- relative viability (EKVX; first compound 0.2 µM): 0.143
- relative viability (NCI-H1666; first compound 0.002 µM): 0.841
- relative viability (NCI-H1666; first compound 0.006325 µM): 0.801
- relative viability (NCI-H1666; first compound 0.02 µM): 0.853
- relative viability (NCI-H1666; first compound 0.06325 µM): 0.81
- relative viability (NCI-H1666; first compound 0.2 µM): 0.791
- relative viability (NCI-H520; first compound 0.002 µM): 0.247
- relative viability (NCI-H520; first compound 0.006325 µM): 0.27
- relative viability (NCI-H520; first compound 0.02 µM): 0.231
- relative viability (NCI-H520; first compound 0.06325 µM): 0.159
- relative viability (NCI-H520; first compound 0.2 µM): 0.158
- relative viability (NCI-H727; first compound 0.002 µM): 0.72
- relative viability (NCI-H727; first compound 0.006325 µM): 0.549
- relative viability (NCI-H727; first compound 0.02 µM): 0.463
- relative viability (NCI-H727; first compound 0.06325 µM): 0.33
- relative viability (NCI-H727; first compound 0.2 µM): 0.23
- relative viability (NCI-H1792; first compound 0.002 µM): 0.637
- relative viability (NCI-H1792; first compound 0.006325 µM): 0.618
- relative viability (NCI-H1792; first compound 0.02 µM): 0.509
- relative viability (NCI-H1792; first compound 0.06325 µM): 0.26
- relative viability (NCI-H1792; first compound 0.2 µM): 0.229
- relative viability (SK-LU-1; first compound 0.002 µM): 0.356
- relative viability (SK-LU-1; first compound 0.006325 µM): 0.201
- relative viability (SK-LU-1; first compound 0.02 µM): 0.136
- relative viability (SK-LU-1; first compound 0.06325 µM): 0.0733
- relative viability (SK-LU-1; first compound 0.2 µM): 0.0594
